Results as given in ChEMBL document CHEMBL4699469, “Recent Developments in the Biology and Medicinal Chemistry of CDK9 Inhibitors: An Update” (J Med Chem, 2020).
Converted amounts (≈) assume the structure as drawn. Blank lines part the entries; values can stand above or below the compound they belong to.

How the values were obtained:
[1] = system: MOLM-13; assay: Antiproliferative activity against human MOLM-13 cells incubated for 72 hrs by Cell Titre-Glo luminescent assay; type: functional, cell-based; settings: MOLM-13, 72 h
[2] = system: A2780; assay: Antiproliferative activity against human A2780 cells incubated for […] by crystal violet staining based assay; type: functional, cell-based
[3] = target: Cyclin-dependent kinase 4 (Homo sapiens, UniProt P11802); assay: Inhibition of CDK4 (unknown origin) using Ulight-labeled substrate by TR-FRET LANCE method
[4] = target: Cyclin-dependent kinase 6 (Homo sapiens, UniProt Q00534); assay: Inhibition of CDK6 (unknown origin) using Ulight-labeled substrate by TR-FRET LANCE method
[5] = target: T1, Cyclin-dependent kinase 1 (Homo sapiens, UniProt P06493); assay: Inhibition of CDK1 (unknown origin) using Ulight-labeled substrate by TR-FRET LANCE method
[6] = target: T2, Cyclin-dependent kinase 2 (Homo sapiens, UniProt P24941); assay: Inhibition of CDK2 (unknown origin) using Ulight-labeled substrate by TR-FRET LANCE method
[7] = target: T3, Cyclin-dependent kinase 7 (Homo sapiens, UniProt P50613); assay: Inhibition of CDK7 (unknown origin) using Ulight-labeled substrate by TR-FRET LANCE method
[8] = target: Cyclin-dependent kinase 8 (Homo sapiens, UniProt P49336); assay: Inhibition of CDK8 (unknown origin) by TR-FRET assay
[9] = Plasma clearance in Sprague-Dawley rat at 1 mg/kg, iv measured after 24 hrs by reverse phase HPLC analysis; type: ADME, organism-based
[10] = system: NCI-H929; assay: cells; settings: Homo sapiens, NCI-H929, 24 h
[11] = system: MV4-11; assay: cells; settings: Homo sapiens, MV4-11, 24 h
[12] = target: T4, CDK9/cyclin T1 (Homo sapiens, UniProt P50750); assay: Inhibition of His-tagged human CDK9/cyclin T1 expressed in insect cells using biotinylated-cdk7tide peptide incubated for 5 hrs by Alpha Screen assay
[13] = target: T4, CDK9/cyclin T1; assay: Displacement of Alexa Fluor 647 ADP Tracer from His-tagged human CDK9/Cyclin T1 expressed in baculovirus expression system incubated for 1 hr by adapta assay
[14] = target: CDK7/Cyclin H/MNAT1 (Homo sapiens, UniProt P50613); assay: Displacement of Alexa Fluor 647 ADP Tracer from human CDK7/CyclinH/MAT1 expressed in baculovirus expression system incubated for 1 hr by adapta assay
[15] = system: MOLT-4; assay: Antiproliferative activity against human MOLT4 cells incubated for 72 hrs by cell titer glo assay; type: functional, cell-based; settings: MOLT-4, 72 h
[16] = target: T4, CDK9/cyclin T1; assay: Inhibition of human CDK9 (1 to 372 residues)/N-terminal GST-fused His-tagged CyclinT1 (1 to 726 residues) expressed in baculovirus expression system incubated for 0.5 to 1 hr by TR-FRET assay
[17] = target: Cyclin-dependent kinase 2/cyclin E1 (Homo sapiens, UniProt P24941); assay: Inhibition of His-tagged human CDK2/cyclin E1 expressed in insect cells using biotin Ttds-YISPLKSPYKISEG as substrate preincubated for 15 mins followed by ATP and substrate addition and measured after 25 mins by TR-FRET assay
[18] = target: Glycogen synthase kinase-3 beta (Homo sapiens, UniProt P49841); assay: Inhibition of human GSK3beta
[19] = Thermodynamic solubility of the compound at pH 6.5 incubated for 24 hrs by equilibrium shake flask; type: physicochemical; settings: buffer, read-out: Therm_solubility
[20] = target: Glycogen synthase kinase-3 alpha (Homo sapiens, UniProt P49840); assay: Inhibition of human GSK3alpha
[21] = Oral bioavailability in Wistar rats at 0.6 to 1 mg/kg measured up to 24 hrs by LC-MS/MS analysis; type: ADME, organism-based; settings: rat, in vivo, dose 0.6-1 mg/kg
[22] = target: CDK3/Cyclin E (Homo sapiens, UniProt Q00526); assay: Inhibition of C-terminal His6-tagged human CDK3/N-terminal GST-tagged human cyclin E expressed in baculovirus infected Sf21 insect cells
[23] = target: T3, Cyclin-dependent kinase 7; assay: Binding affinity to wild-type human full length CDK7 (M1 to L344 residues) expressed in mammalian expression system by Kinomescan method
[24] = target: T5, Cyclin-dependent kinase 9 (Homo sapiens, UniProt P50750); assay: Binding affinity to wild-type human full length CDK9 (M1 to F372 residues) expressed in bacterial expression system by Kinomescan method
[25] = system: MOLM-13; assay: Antiproliferative activity against human MOLM-13 cells; type: functional, cell-based
[26] = target: T5, Cyclin-dependent kinase 9
[27] = Solubility of the compound at pH 6.8; type: physicochemical; settings: buffer
[28] = Solubility of the compound at pH 8.7; type: physicochemical; settings: buffer
[29] = Oral bioavailability in mouse; type: ADME, organism-based; settings: in vivo
[30] = system: MV4-11; assay: Antitumor activity against human MV4-11 cells xenografted in mouse assessed as tumor growth inhibition at 7.5 mg/kg relative to control; type: functional; settings: read-out: TGI
[31] = system: OPM-2; assay: Growth inhibition of human OPM-2 cells incubated for 24 hrs; type: functional
[32] = target: T1, Cyclin-dependent kinase 1; assay: Inhibition of CDK1 in human MCF7 cells assessed as reduction in PP1alpha phosphorylation at T320 residue incubated for 6 hrs by immunoblot analysis; type: cell-based
[33] = target: T2, Cyclin-dependent kinase 2; assay: Inhibition of CDK2 in human MCF7 cells assessed as reduction in Rb phosphorylation at T821 residue incubated for 6 hrs by immunoblot analysis; type: cell-based
[34] = target: Cyclin-dependent kinase 4/6 (Homo sapiens, UniProt P11802+Q00534); assay: Inhibition of CDK4/6 in human MCF7 cells assessed as reduction in Rb phosphorylation at S807/811 residue incubated for 6 hrs by immunoblot analysis; type: cell-based
[35] = target: T3, Cyclin-dependent kinase 7; assay: Inhibition of CDK7 in human MCF7 cells assessed as RNA polymerase2 phosphorylation at serine 5 residue residue incubated for 6 hrs by immunoblot analysis; type: cell-based
[36] = Half life in rat; type: ADME; settings: in vivo
[37] = Half life in dog; type: ADME, Canis lupus familiaris; settings: in vivo
[38] = Half life in monkey; type: ADME, Macaca mulatta; settings: rhesus monkey, in vivo

Structure (SMILES): Cc1cc(CS(C)(=O)=O)cc(Nc2ncc(F)c(-c3ccc(F)c4ccoc34)n2)c1
IC50 [1]: 46 nM
IC50 [2]: 38 nM

Structure (SMILES): COc1ccc(F)cc1-c1c(F)cnc2[nH]c(C3=CCN([C@H]4CC[C@H](C(=O)O)CC4)CC3)cc12
IC50 [3]: 162 nM
IC50 [4]: 101 nM
IC50 [5]: > 320 nM
IC50 [6]: > 320 nM
IC50 [7]: > 320 nM
IC50 [8]: > 320 nM
clearance [9]: 10.5 mL/min/kg
IC50 [10]: 40 nM
IC50 [11]: 138 nM

Structure (SMILES): COC[C@H](C)N[C@H]1CC[C@H](Nc2cc(-c3cccc(NCC4(C#N)CCOCC4)n3)c(Cl)cn2)CC1
IC50 [13]: < 0.5 nM
IC50 [14]: > 10000 nM
IC50 [15]: 9 nM

Structure (SMILES): Cn1ncc(-c2nc(N[C@H]3CC[C@H](N)CC3)ncc2Cl)c1CC1CC1 [BTX-A51]
Kd [23]: 1.3 nM
Kd [24]: 4 nM

Structure (SMILES): CN1CC[C@H](c2c(OP(=O)(O)O)cc(O)c3c(=O)cc(-c4ccccc4Cl)oc23)[C@H](O)C1 [TP-1287]
IC50 [26]: 84 nM
solubility [27]: 9500 µg/mL (≈ 19.7 mM)
solubility [28]: 9300 µg/mL (≈ 19.3 mM)
F [29]: 182.3%
inhibition in vivo at 7.5 mg/kg [30]: 109%

Second part, led by results:

IC50 [12]: < 8 nM
Structure (SMILES): O=C(Nc1cc(-c2cccc(NCc3cccc(F)c3)n2)c(Cl)cn1)[C@H]1CNCCO1

IC50 [16]: 13 nM
Structure (SMILES): COc1ccc(F)cc1-c1ncnc2[nH]c(C3CCNCC3)cc12

IC50 [17]: 558 nM
Structure (SMILES): COc1cc(F)ccc1-c1ncnc(Nc2cccc(CCS(C)(=O)=O)c2)n1

IC50 [18]: 87 nM
solubility thermodynamic at 24 h [19]: 479 µg/mL (≈ 1.24 mM)
IC50 [20]: 45 nM
bioavailability [21]: 54%
IC50 [22]: > 890 nM
Structure (SMILES): COc1cc(F)ccc1-c1ncnc(Nc2cccc(C[S@](C)(=N)=O)c2)n1 [ATUVECICLIB]

IC50 [15]: 173 nM
Structure (SMILES): CC(C)(C)c1cnc(CSc2cnc(NC(=O)C3CCNCC3)s2)o1 [BMS-387032]

IC50 [25]: 29 nM
Structure (SMILES): COc1cc(F)ccc1-c1cc(Nc2cc(CS(C)(=N)=O)ccn2)ncc1F (centres undefined) [ENITOCICLIB]

IC50 [32]: 370 nM
IC50 [33]: > 10000 nM
IC50 [34]: > 10000 nM
IC50 [35]: 1100 nM
half-life [36]: < 1 h
half-life [37]: < 1 h
half-life [38]: < 1 h
Structure (SMILES): CC(=O)N[C@@H]1CCC[C@H](C(=O)Nc2cc(-c3cnn4c3CC(C)(C)C4)c(Cl)cn2)C1 [ZEMIRCICLIB]
GI50 [31]: 23 nM
